{
  "source": "patent US20190369122A1",
  "about": "“METABOLIC DISORDERS” (priority 2016, published 2019)",
  "key": {"[1]": {"test": "Circulating levels after intraperitoneal injection in GF mice", "type": "in vivo, mouse", "conditions": "500 μg intraperitoneally twice per day for 3 days", "description": "(§1) An intraperitoneal glucose tolerance test (using 1 g glucose per kg body weight) was then performed after a 4 h fast. Blood glucose levels were measured from tail blood using HemoCue201+analyzer (HemoCue, Angelholm, Sweden). Liver and plasma samples were collected after a 4 h fast. Mice were under isoflurane anesthesia and killed by cervical dislocation. Fresh liver was taken and snap-frozen in liquid nitrogen and stored at −80° C. until protein extraction.\nThe samples were then reconstituted with 5% HCl in n-butanol at 70° C. for 1 h, allowing n-butyl ester to be formed. […] Samples (5 μl) were injected onto a C18 BEH column (2.1×100 mm with 1.7 μm particles; Waters, Milford, Mass.) using a gradient consisting of water with 0.1% formic acid (A-phase) and acetonitrile with 0.1% formic acid (B-phase). Mass spectrometric analysis was performed using an Infinity 1290 quaternary UPLC pump (Agilent, Santa Clara, Calif.) coupled to a QTRAP 5500 (ABSciex, Concord, Canada). […] For the internal standards, the transitions 206/81 and 204/93 were used."}, "GF mice": {"test_system": "GF mice", "test": "Intraperitoneal glucose tolerance test in GF mice", "type": "in vivo, mouse", "conditions": "500 μg i.p. twice per day for 3 days", "description": "as §1"}, "[2]": {"test_system": "insulin signaling components", "test": "Immunoblot of liver lysates from GF mice", "type": "in vivo, mouse", "conditions": "3-day treatment", "description": "as §1\n(§2) Snap-frozen liver and harvested cells were lysed in buffer containing 50 mM Tris-HCl (pH 7.4), 150 mM NaCl, 1 mM EDTA, 1 mM Na3VO4, 20 mM NaF, 10 mM glycerophosphate, 1 mM PMSF, 10% glycerol, 1% Triton X-100 and protease inhibitor cocktail. For immunoprecipitation, the cell lysates were obtained in 0.3% CHAPS-containing lysis buffer, sonicated and centrifuged at 20,000 g for 15 min at 4° C., and the supernatant was incubated with 20 μl of anti-FLAG beads (Sigma) at 4° C. for 4 h under gentle agitation."}, "primary hepatocytes": {"test_system": "primary hepatocytes", "test": "Insulin signaling in primary hepatocytes (immunoblot)", "type": "cell-based, mouse", "description": "as §2\nPrimary hepatocytes were isolated from C57BL/6J mice by digesting liver with perfusion of collagenase type IV as described previously. After perfusion, 16×10^5 cells were plated on collagen-coated 60 mm dishes in Dulbecco's modified Eagle's medium (DMEM)/F12 supplemented with fetal bovine serum (FBS), penicillin/streptomycin and 100 nM dexamethasone. After 4 h, the medium was changed to DMEM/F12 containing penicillin/streptomycin."}, "HEK293 cells [3]": {"test_system": "HEK293 cells", "test": "Signaling in HEK293 cells (immunoblot)", "type": "cell-based, human", "description": "as §2\nHEK293 cells (ATCC CRL-1573) were grown and maintained in high-glucose (4.5 g/l glucose) DMEM with 10% (v/v) FBS. […] 24 h after transfection (with plasmids or siRNA as indicated), HEK293 cells cultured in poly-L-lysine-coated 60 mm dishes were rinsed twice with DMEM without FBS and incubated in serum-free DMEM for 18 h. HEK293 cells were then washed once with EBSS and incubated in EBSS for 1 h."}, "[4]": {"test": "Targeted measurements in portal and peripheral blood, first cohort", "conditions": "human portal vs peripheral blood", "excerpt": "Two human cohorts were used in this study. The first cohort comprised five obese subjects with type 2 diabetes and ten BMI-matched subjects without type 2 diabetes who were undergoing laparoscopic Roux-and-Y gastric bypass surgery at the Slotervaart Hospital, Amsterdam, the Netherlands, see Table 2. Subjects were fasted overnight before the morning of the surgery, and a peripheral venous sample was taken just before the patient went into the operating room. Anthropometric measurements and a stool sample were also taken before surgery. During the surgery, a portal vein sample (vena puncture) was taken as previously described. Fasting glucose (by glucose meters, Roche Diagnostics), insulin (by an electrochemiluminescence immunoassay, Roche Modular System) and HbA1c (Menarini Diagnostic) were measured in the peripheral blood. All participants gave informed consent before the surgery and the protocol was approved by the Medical Ethical Committee of the Slotervaart Hospital, Amsterdam, the Netherlands.\nThe samples were then reconstituted with 5% HCl in n-butanol at 70° C. for 1 h, allowing n-butyl ester to be formed. […] Samples (5 μl) were injected onto a C18 BEH column (2.1×100 mm with 1.7 μm particles; Waters, Milford, Mass.) using a gradient consisting of water with 0.1% formic acid (A-phase) and acetonitrile with 0.1% formic acid (B-phase). […]"}, "HEK293 cells [5]": {"test_system": "HEK293 cells", "test": "siRNA knock-down in HEK293 cells, ImP-induced signaling", "type": "cell-based, human", "conditions": "HEK293 transfected with control or p38δ/p38γ siRNA", "description": "HEK293 cells (ATCC CRL-1573) were grown and maintained in high-glucose (4.5 g/l glucose) DMEM with 10% (v/v) FBS. All HEK293 cell experiments were performed in serum-starved and amino acid-deprived conditions. 24 h after transfection (with plasmids or siRNA as indicated), HEK293 cells cultured in poly-L-lysine-coated 60 mm dishes were rinsed twice with DMEM without FBS and incubated in serum-free DMEM for 18 h. HEK293 cells were then washed once with EBSS and incubated in EBSS for 1 h.\nFLAG mTOR and HA Raptor were kindly provided by Dr Sung Ho Ryu (Pohang University of Science and Technology, Pohang, South Korea). Myc-Rag GTPases constructs were gifts from Dr Do-Hyung Kim (University of Minnesota, Minn., USA). AIIStars negative control siRNA, p38δ siRNA1 (Hs_MAPK13_5 targeting […] (SEQ ID NO: 15)), p38δ siRNA2 (Hs_MAPK13_6 targeting […] (SEQ ID NO: 16)), p38γ siRNA1 (Hs_MAPK12_5 targeting […] (SEQ ID NO: 17)), p38γ siRNA2 (Hs_MAPK12_8 targeting […] (SEQ ID NO: 18)), p38α siRNA (Hs_MAPK14_5 targeting […] (SEQ ID NO: 21)), p38β siRNA (Hs_MAPK11_6 targeting […] (SEQ ID NO: 22)), S6K1 siRNA (Hs_RPS6KB1_5 targeting […] (SEQ ID NO: 23)) and Raptor siRNA (Hs_RPTOR_1 targeting […] (SEQ ID NO: 24)) (Qiagen, Valencia, Calif.) were transfected into HEK293 cells using Lipofectamin 2000 according to the manufacturer's instructions."}},
  "data": [
    {"smiles": "O=C(O)CCc1cnc[nH]1", "note": "[imidazole propionate]", "values": [
      {"measurement": "circulating concentrations of imidazole propionate", "setting": "[1]", "result": "around 13 nM"},
      {"measurement": "effect on urocanate levels", "setting": "[1]", "result": "without affecting"},
      {"measurement": "glucose tolerance", "setting": "GF mice", "result": "significant glucose intolerance"},
      {"measurement": "Akt phosphorylation, either S473 or T308, in liver", "setting": "[2]", "result": "no reduction"},
      {"measurement": "S6K1 phosphorylation in the liver", "setting": "[2]", "result": "increased"},
      {"measurement": "mTORC1 S2481 autophosphorylation in the liver", "setting": "[2]", "result": "without affecting"},
      {"measurement": "hepatic levels of IRS1 and IRS2", "setting": "[2]; 500 μg twice per day", "result": "reduced"},
      {"measurement": "hepatic levels of the insulin receptor (IR)", "setting": "[2]; 500 μg twice per day", "result": "did not affect"},
      {"measurement": "IRS protein levels", "setting": "primary hepatocytes; 100 μM for 8 h", "result": "did not affect"},
      {"measurement": "insulin-induced IRS1 Y612 phosphorylation", "setting": "primary hepatocytes; 100 μM for 8 h, insulin 5 nM", "result": "blunted"},
      {"measurement": "IRS protein levels", "setting": "primary hepatocytes; 100 μM for 20 h", "result": "reduced"},
      {"measurement": "basal Akt phosphorylation at both S473 and T308", "setting": "primary hepatocytes; 8 h", "result": "induced"},
      {"measurement": "insulin-induced Akt S473 phosphorylation", "setting": "primary hepatocytes; 8 h, insulin 5 nM", "result": "reduced"},
      {"measurement": "insulin-induced Akt T308 phosphorylation", "setting": "primary hepatocytes; 8 h, insulin 5 nM", "result": "not"},
      {"measurement": "IRS1 level", "setting": "primary hepatocytes; 14 h", "result": "dramatic reduction"},
      {"measurement": "basal Akt phosphorylation at S473 and T308", "setting": "primary hepatocytes; 14 h", "result": "increase"},
      {"measurement": "insulin-induced Akt S473 phosphorylation", "setting": "primary hepatocytes; 14 h", "result": "lower"},
      {"measurement": "insulin-induced Akt T308 phosphorylation", "setting": "primary hepatocytes; 14 h, vs vehicle", "result": "higher"},
      {"measurement": "S6K1 phosphorylation", "setting": "primary hepatocytes; ImP 100 μM", "result": "increased"},
      {"measurement": "p62 phosphorylation", "setting": "primary hepatocytes; ImP 100 μM for 24 h", "result": "induced"},
      {"measurement": "S6K1 phosphorylation", "setting": "HEK293 cells [3]; HEK293, 100 μM for 1 h", "result": "induced"},
      {"measurement": "basal activation of Akt", "setting": "HEK293 cells [3]; HEK293, 8 h pretreatment", "result": "increased"},
      {"measurement": "responsiveness of Akt S473 to insulin", "setting": "HEK293 cells [3]; HEK293, 8 h pretreatment", "result": "reduced"},
      {"measurement": "lowest concentration with p62 phosphorylation activation", "setting": "HEK293 cells [3]; HEK293, absence of amino acids", "result": 10, "unit": "nM"},
      {"measurement": "p62 phosphorylation", "setting": "HEK293 cells [3]; HEK293, absence of amino acids, 1 and 2 h", "result": "concentration- and time-dependent increase"},
      {"measurement": "Akt phosphorylation", "setting": "HEK293 cells [3]; HEK293, compared with amino acids", "result": "induced"},
      {"measurement": "time to mTORC1 activation", "setting": "HEK293 cells [3]; absence of amino acids", "result": "≥ 30", "unit": "min"},
      {"measurement": "IRS1 S636/S639 phosphorylation", "setting": "HEK293 cells [3]; amino acid-deprived HEK293, 2 h", "result": "induced"},
      {"measurement": "IRS1 levels", "setting": "HEK293 cells [3]; amino acid-deprived HEK293, 8 h", "result": "dramatically reduced"},
      {"measurement": "IRS1 protein levels", "setting": "HEK293 cells [3]; amino acid-deprived cells, up to 2 h", "result": "not reduced"},
      {"measurement": "time to S6K1 phosphorylation", "setting": "HEK293 cells [3]; presence of amino acids", "result": "≤ 30", "unit": "min"},
      {"measurement": "metabolism inferred from similar portal and peripheral blood concentrations", "setting": "[4]", "result": "not metabolized"},
      {"measurement": "DEPTOR level", "setting": "HEK293 cells [5]", "result": "not affected"}
    ]}
  ]
}
